Consider 11 compounds from PubChem BioAssay (NCI).

Structures are written as SMILES. Several values for one entry are separate records, joined by “and”; a condition that tells them apart may be missing. Identical values can stand only once.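 96-well plates; 48 h exposure; 5 concentrations. Endpoints by linear interpolation between flanking doses. Not reached: highest tested concentration assigned. Here, GI50 denotes the concentration required for 50% inhibition of growth. TGI marks complete inhibition of growth.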 Where a SMILES comes first, the peptide text is derived from it. The star is where a group is joined. Cbz = O=C(OCc1ccccc1)*

Some test systems named below: 786-0 renal; CAKI-1 renal; COLO 205 colon; HOP-92 NSCLC; MCF7 breast; NCI-H460 lung; NCI/ADR-RES ovarian; OVCAR-4 ovarian; OVCAR-5 ovarian; SNB-75 CNS.
Common to all, as to assay: NCI tumour cell line growth inhibition, 48 h

For `CC(C)(C)OC(=O)NC(Cc1ccc([N+](=O)[O-])cc1)C(=O)NC(CCCCNC(=O)OCc1ccccc1)C(=O)ON1C(=O)CCC1=O` (stereo unspecified), the TGI with 786-0 renal, in the experiment on CAKI-1 renal, with COLO 205 colon, in the experiment with HOP-92 NSCLC, in the experiment with MCF7 breast and with NCI-H460 lung was more than 100 µM throughout. Further, the TGI with NCI/ADR-RES ovarian, with OVCAR-4 ovarian, with OVCAR-5 ovarian and in the experiment on SNB-75 CNS was more than 100 µM throughout.

As to `Cc1ccc(C2=Nc3c(N)nc(N)nc3NC(c3ccccc3)C2)cc1` (stereo unspecified), the TGI was 24.3 µM and 31.1 µM with 786-0 renal; 24.7 µM and 29.5 µM in the experiment with CAKI-1 renal; 14 µM and 25.3 µM with COLO 205 colon; 24.3 µM and 24.9 µM with HOP-92 NSCLC; 22.5 µM and 21.5 µM in the experiment with MCF7 breast; 28.3 µM in the experiment with NCI-H460 lung. The TGI in the experiment on NCI/ADR-RES ovarian was 16.1 µM and 18.2 µM; with OVCAR-4 ovarian, 27.6 µM and 29.9 µM; in the experiment with OVCAR-5 ovarian it was 30.5 µM and 33.5 µM; with SNB-75 CNS it was 29.8 µM and 27.4 µM. In addition, in the experiment on COLO 205 colon, the GI50 was 5.21 µM and 11.4 µM.

Take `O=C(O)CCC1(c2ccccc2)NC(=O)NC1=O` (stereo unspecified): the TGI in the experiment with 786-0 renal, in the experiment on CAKI-1 renal, with COLO 205 colon, with HOP-92 NSCLC, in the experiment with MCF7 breast and in the experiment on NCI-H460 lung was more than 100 µM in each case. The TGI in the experiment with NCI/ADR-RES ovarian, with OVCAR-4 ovarian, in the experiment on OVCAR-5 ovarian and with SNB-75 CNS was more than 100 µM throughout.

Take `Cn1c(=O)n(CC(Br)CBr)c(=O)n(CC(Br)CBr)c1=O` (stereo unspecified): the TGI was more than 100 µM in the experiment on 786-0 renal; more than 100 µM with CAKI-1 renal; 43.4 µM in the experiment with COLO 205 colon; more than 100 µM in the experiment on HOP-92 NSCLC; more than 100 µM with MCF7 breast; more than 100 µM with NCI-H460 lung. Besides, the TGI in the experiment with NCI/ADR-RES ovarian, with OVCAR-4 ovarian, in the experiment on OVCAR-5 ovarian and in the experiment with SNB-75 CNS was more than 100 µM each time.

For `COC(=O)C1=C(O)C(C(=O)OC)[C@]2(O)[C@H](C(=O)OC)[C@H]1C[C@@H](c1ccc(OC)cc1)[C@H]2C(=O)OC` (stereo partly specified), the TGI was 47.3 µM in the experiment on 786-0 renal; 62.1 µM in the experiment with CAKI-1 renal; more than 100 µM in the experiment with COLO 205 colon; more than 100 µM in the experiment with HOP-92 NSCLC; more than 100 µM in the experiment with MCF7 breast; 50 µM in the experiment on NCI-H460 lung. For the same compound, the TGI with NCI/ADR-RES ovarian is more than 100 µM; in the experiment on OVCAR-4 ovarian it was 78.2 µM; in the experiment on OVCAR-5 ovarian it was 51.9 µM; in the experiment on SNB-75 CNS it was 91.8 µM.

`CCOC(=O)C(C)NC(=O)C(C)NC(=O)C(C)NC(=O)C(C)NC(=O)C(C)NC(=O)C(C)NC(=O)C(C)NC(=O)OCc1ccccc1` (stereo unspecified) (Cbz-AAAAAAA-OEt; configuration not given here): the TGI with 786-0 renal, in the experiment on CAKI-1 renal, with COLO 205 colon, in the experiment with HOP-92 NSCLC, in the experiment with MCF7 breast and with NCI-H460 lung was more than 100 µM throughout. In addition, the TGI in the experiment with NCI/ADR-RES ovarian, in the experiment on OVCAR-4 ovarian, in the experiment with OVCAR-5 ovarian and with SNB-75 CNS was more than 100 µM each time.

For `CCOC(=O)c1c(SCCO)n(-c2ccccc2)c(=S)n(-c2ccccc2)c1=O`, the TGI with 786-0 renal, with CAKI-1 renal, in the experiment on COLO 205 colon, in the experiment on HOP-92 NSCLC, with MCF7 breast and in the experiment on NCI-H460 lung was more than 100 µM each time. Also, the TGI with NCI/ADR-RES ovarian, in the experiment with OVCAR-4 ovarian, with OVCAR-5 ovarian and with SNB-75 CNS was more than 100 µM each time.

In the case of `Cc1cc(=Nc2ccc3c(c2)c(N)cc(C)[n+]3C)nc(N)n1C`, the TGI in the experiment with 786-0 renal, in the experiment with CAKI-1 renal, in the experiment on COLO 205 colon, in the experiment with HOP-92 NSCLC, with MCF7 breast and in the experiment with NCI-H460 lung was more than 100 µM in each case. The TGI with NCI/ADR-RES ovarian, in the experiment with OVCAR-4 ovarian, in the experiment with OVCAR-5 ovarian and in the experiment with SNB-75 CNS was more than 100 µM in each case.

Regarding `COc1cc2c(c(OC)c1OC)C(=O)CC2N` (stereo unspecified), the TGI with 786-0 renal, with CAKI-1 renal, in the experiment with COLO 205 colon, in the experiment with HOP-92 NSCLC, in the experiment with MCF7 breast and with NCI-H460 lung was more than 100 µM throughout. The TGI in the experiment on NCI/ADR-RES ovarian, in the experiment on OVCAR-4 ovarian, in the experiment on OVCAR-5 ovarian and with SNB-75 CNS was more than 100 µM in each case.

For `COC(=O)C1=C(C)NC(C)=C([N+](=O)[O-])C1c1cccc(NO)c1` (stereo unspecified), the TGI in the experiment on 786-0 renal was more than 87.9 µM; in the experiment on CAKI-1 renal it was more than 52.7 µM; with COLO 205 colon, 4.74 µM; in the experiment on HOP-92 NSCLC it was 28 µM; with MCF7 breast, 27.2 µM; in the experiment with NCI-H460 lung it was 17.5 µM. Besides, the TGI in the experiment on NCI/ADR-RES ovarian is 46.6 µM; in the experiment on OVCAR-4 ovarian, 40.6 µM; with OVCAR-5 ovarian, more than 100 µM; in the experiment on SNB-75 CNS it was more than 100 µM.

As for `C[C@@H]1CCC2[C@@H](C)C(=O)O[C@@H]3C4C[C@@H]1[C@@]23OO[C@@]4(C)O` (stereo partly specified), the TGI with 786-0 renal, in the experiment with CAKI-1 renal, in the experiment with COLO 205 colon, with HOP-92 NSCLC, in the experiment on MCF7 breast and in the experiment on NCI-H460 lung was more than 100 µM each time. Further, the TGI with NCI/ADR-RES ovarian, with OVCAR-4 ovarian, in the experiment with OVCAR-5 ovarian and in the experiment with SNB-75 CNS was more than 100 µM each time.
